The record followed here is patent US6677338B2, “Serotonin transport inhibitors” (President and Fellows of Harvard College, priority 1997, dated 2004).

“Also recorded” adds a separate entry of the source. Where two headings read alike, the source gives them in different places.

In data set [1] the target is T1, human SERT (Homo sapiens, UniProt P31645).
T1 construct: expressed in transfected cells; host or cells: HEK-293 (stably or transiently transfected, pcDNA3.1 vector)
The experiment in a line: (3H)serotonin transport in HEK-293 cells transfected with the human SERT. Format: cell-based. Particulars: for blocked (3H)serotonin transport (in words): comparable to imipramine, fluoxetine and amitriptyline.

The target in data set [2] is T2, Serotonin transporter (SERT) (Macaca mulatta, UniProt Q9MYX0).
T2 construct: in monkey striatum homogenates; from tissue; host or cells: monkey striatum homogenate
T2 sequence (Q9MYX0 whole entry): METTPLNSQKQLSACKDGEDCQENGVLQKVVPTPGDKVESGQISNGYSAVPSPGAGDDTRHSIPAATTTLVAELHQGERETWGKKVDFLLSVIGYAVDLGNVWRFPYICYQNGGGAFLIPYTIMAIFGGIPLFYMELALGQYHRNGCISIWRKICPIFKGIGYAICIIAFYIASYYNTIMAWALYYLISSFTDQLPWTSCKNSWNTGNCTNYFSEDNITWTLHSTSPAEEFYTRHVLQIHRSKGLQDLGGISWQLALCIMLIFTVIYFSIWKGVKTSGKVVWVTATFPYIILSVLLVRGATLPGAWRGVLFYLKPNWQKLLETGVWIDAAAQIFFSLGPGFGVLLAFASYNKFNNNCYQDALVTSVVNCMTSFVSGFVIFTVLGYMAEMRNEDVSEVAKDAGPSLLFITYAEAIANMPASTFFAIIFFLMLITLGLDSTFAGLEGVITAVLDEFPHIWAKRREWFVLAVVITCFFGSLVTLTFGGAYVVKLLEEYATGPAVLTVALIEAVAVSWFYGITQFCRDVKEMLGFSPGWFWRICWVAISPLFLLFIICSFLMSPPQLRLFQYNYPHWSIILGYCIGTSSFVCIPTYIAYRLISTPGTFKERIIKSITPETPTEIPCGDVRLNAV
The experiment in a line: (3H)citalopram competition binding in monkey striatum homogenates. The following applies: for SERT/DAT Selectivity: fold selectivity for serotonin over dopamine transporter. As to the method: Initial screening procedures for non-amines were conducted in primate striatum, a standard source of brain transporters for drug screening and for generating structure-activity relationships for this series (Table 1). […] The binding experiments were terminated by rapid filtration and radioactivity measured as described above. […] The experiments were performed in triplicate and each value is the mean ±S.E. of 2-5 independent experiments.
(§1) Values were determined by fitting data to the equation for competitive binding with EBDA computer program. Data represent the mean ±S.D. of two or more experiments.

The target in data set [3] is T3, Dopamine transporter (DAT) (Macaca fascicularis, UniProt Q9GJT6).
T3 construct: in monkey striatum homogenates; from tissue; host or cells: monkey striatum homogenate
T3 sequence (Q9GJT6 whole entry): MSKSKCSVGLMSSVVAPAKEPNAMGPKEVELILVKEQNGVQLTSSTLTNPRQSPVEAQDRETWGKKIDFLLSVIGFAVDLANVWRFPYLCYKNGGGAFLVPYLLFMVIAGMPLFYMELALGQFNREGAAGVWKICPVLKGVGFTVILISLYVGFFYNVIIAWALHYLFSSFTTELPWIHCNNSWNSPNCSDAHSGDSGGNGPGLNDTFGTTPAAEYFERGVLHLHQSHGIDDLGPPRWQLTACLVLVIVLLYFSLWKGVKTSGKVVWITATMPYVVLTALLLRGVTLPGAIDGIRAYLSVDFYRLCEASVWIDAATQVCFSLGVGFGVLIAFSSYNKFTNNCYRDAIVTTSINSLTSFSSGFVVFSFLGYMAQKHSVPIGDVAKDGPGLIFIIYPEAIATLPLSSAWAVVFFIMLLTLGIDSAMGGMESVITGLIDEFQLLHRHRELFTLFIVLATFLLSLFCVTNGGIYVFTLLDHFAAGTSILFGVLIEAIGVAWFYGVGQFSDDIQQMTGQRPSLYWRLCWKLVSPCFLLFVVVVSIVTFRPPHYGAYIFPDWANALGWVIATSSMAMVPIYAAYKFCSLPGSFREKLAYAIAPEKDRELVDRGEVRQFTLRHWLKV
The data set is described as follows: (3H)CFT competition binding in monkey striatum homogenates. The method, then:
as §1

In data set [4] the target is T1, human SERT. The data set is described as follows: (3H)citalopram binding in HEK-293 cells transfected with the human SERT.
[5] abbreviates: (3H)serotonin transport Ki, HEK-293 cells with human SERT, 20 nM (3H)serotonin, mean ± S.E.M.
Setting [6] is: monkey striatum, 1 nM (3H)CFT, mean ± S.D., read-out: Dopamine transporter (DAT) IC50.
[7] abbreviates: HEK-293 cells with human SERT, 1 nM (3H)citalopram, mean ± S.E.M., read-out: (3H)citalopram binding Ki.

A word on the Ki: it is a dissociation constant, usually derived from enzyme kinetics or from competition with a known ligand. What is called IC50 is the concentration needed to halve the response being measured. As a reminder, the melting point is the temperature of the solid-liquid transition.

T1 sequence (P31645 whole entry): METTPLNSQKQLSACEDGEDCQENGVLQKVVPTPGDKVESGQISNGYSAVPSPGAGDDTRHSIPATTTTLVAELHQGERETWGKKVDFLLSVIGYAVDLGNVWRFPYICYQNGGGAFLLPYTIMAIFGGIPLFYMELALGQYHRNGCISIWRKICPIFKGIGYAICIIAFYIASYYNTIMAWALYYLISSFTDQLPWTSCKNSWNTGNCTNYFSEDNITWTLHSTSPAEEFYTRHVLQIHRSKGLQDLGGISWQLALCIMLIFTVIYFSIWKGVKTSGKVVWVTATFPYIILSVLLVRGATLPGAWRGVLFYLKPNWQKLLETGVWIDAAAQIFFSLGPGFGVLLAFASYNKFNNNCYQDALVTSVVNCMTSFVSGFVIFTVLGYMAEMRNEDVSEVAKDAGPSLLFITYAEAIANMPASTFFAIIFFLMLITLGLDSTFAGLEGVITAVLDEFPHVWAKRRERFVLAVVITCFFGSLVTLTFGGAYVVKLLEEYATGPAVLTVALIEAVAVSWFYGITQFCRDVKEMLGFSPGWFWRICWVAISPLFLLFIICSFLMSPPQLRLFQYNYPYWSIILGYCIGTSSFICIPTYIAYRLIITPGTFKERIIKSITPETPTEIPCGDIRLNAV

`CC#Cc1ccc([C@@H]2C[C@@H]3CC[C@@H](O3)[C@H]2C(=O)OC)cc1` (relative stereo) [Compound O-1585, 2β-carbomethoxy-3α-(4′-propynylphenyl)-8-oxabicyclo(3.2.1)octane]: the values for the Ki on human SERT [1] (setting [5]) and on human SERT [4] were 56.7 ± 10.4 nM and 76.1 ± 10.5 nM, respectively. The values for the IC50 in data set [2] and in data set [3] (setting [6]) were 152 ± 26.5 nM and 446 ± 94 nM, respectively. Further, in data set [2] (monkey striatum), the “selectivity for the serotonin over the dopamine transporter (in words)” value (shortened to “selectivity for the serotonin”) is listed as “moderately selective; also recorded: modest”. For the same compound, the “SERT/DAT Selectivity” value in data set [2] (monkey striatum) came out at 3.
As to `CC#Cc1ccc([C@H]2C[C@@H]3CC[C@@H](O3)[C@H]2C(=O)OC)cc1` (relative stereo) [Compound O-1577], the melting point lay within 142 to 143 °C. Moreover, on human SERT [1] (setting [5]), the Ki stood at 63 ± 16.8 nM. This compound showed an IC50 in data set [2] of 72.4 nM. Further, in data set [2] (monkey striatum), the “selectivity for the serotonin” value was “modest” and the “SERT/DAT Selectivity” value worked out at 8. The IC50 in data set [3] (setting [6]) is 545 ± 76 nM. The compound further had a Ki on human SERT [4] of 32.6 ± 7.88 nM.
As for `COC(=O)[C@H]1[C@@H](c2ccc3ccccc3c2)C[C@@H]2CC[C@H]1N2C` (relative stereo) [Compound O-1229, N-methyl-2β-carbomethoxy-3β(2′-naphthyl)-8-azabicyclo(3.2.1)octane], the results for the Ki at human SERT [1] (setting [5]) and on human SERT [4] were 0.14 ± 0.07 nM and 1.42 ± 0.78 nM, respectively. In addition, the IC50 amounted to 2.19 ± 0.18 nM in data set [2] and 0.49 ± 0.04 nM in data set [3]. Further, in data set [2] (monkey striatum), the “SERT/DAT Selectivity” value amounted to 0.2.
`COC(=O)C1C(c2ccc3ccccc3c2)CC2CCC1N2C` (stereo not drawn) [Compound O-1228, N-methyl-2β-carbomethoxy-3-(2′-naphthyl)-8-azabicyclo(3.2.1)octane]: the Ki at human SERT [1] (HEK-293 cells with human SERT, 20 nM (3H)serotonin, mean ± S.E.M., read-out: (3H)serotonin transport Ki) was 4.57 ± 0.37 nM; at human SERT [4] (setting [7]), 3.26 ± 0.26 nM. In addition, in data set [3] (setting [6]), the IC50 was 0.57 ± 0.34 nM.
As to `C=C(C)c1ccc([C@@H]2C[C@@H]3CC[C@@H](O3)[C@H]2C(=O)OC)cc1` (relative stereo) [Compound O-1738, 2β-carbomethoxy-3α-(4-isopropenylphenyl)-8-oxabicyclo(3.2.1)octane], the results for the Ki at human SERT [1] (setting [5]) and at human SERT [4] were 376 ± 74 nM and 218 ± 45.1 nM, respectively. The IC50 in data set [2] was 158 ± 23 nM; in data set [3] (setting [6]), 912 ± 100 nM. The “selectivity for the serotonin” value in data set [2] (monkey striatum) is reported as “moderately selective”. For the same compound, in data set [2] (monkey striatum), the “SERT/DAT Selectivity” value was 6.
For the compound `COC(=O)[C@@H]1[C@H]2CC[C@H](C2)C[C@@H]1c1ccc(Cl)c(Cl)c1` (racemic) [Compound O-1391, 2-β-carbomethoxy-3-β-(3,4-dichlorophenyl)bicyclo(3.2.1)octane], the Ki at human SERT [1] (setting [5]) was determined as 11.1 ± 7.44 nM; on human SERT [4] it was 10 ± 4.3 nM. The “blocked (3H)serotonin transport (in words)” value (“blocked” for short) on human SERT [1] is “low nanomolar range”. The IC50 was 33.9 ± 1.85 nM in data set [2] and 13.5 ± 0.9 nM in data set [3] (setting [6]). Further, the “selectivity for the serotonin” value in data set [2] (monkey striatum) is given as “relatively non-selective”. Besides, the “reduction of potency for the SERT on substitution of the 8-oxa with an 8-carba” value in data set [2] (monkey striatum, O-1391 versus O-1072) is 7 fold. Moreover, in data set [2] (monkey striatum), the “SERT/DAT Selectivity” value is 0.4.
On human SERT [1] (setting [5]), `COC(=O)[C@H]1[C@@H](c2ccc(Cl)c(Cl)c2)C[C@@H]2CC[C@H]1O2` (relative stereo) [Compound O-1072, 2-β-carbomethoxy-3-β-(3,4-dichlorophenyl)-8-oxabicyclo(3.2.1)octane] gave a Ki of 10 to 20 nM. In addition, the “blocked” value on human SERT [1] was “low nanomolar range”. Further, the IC50 stood at 4.66 ± 1.24 nM in data set [2] and 3.88 ± 0.93 nM in data set [3]. Further, in data set [2] (monkey striatum), the “selectivity for the serotonin” value is “relatively non-selective”. Moreover, the “SERT/DAT Selectivity” value in data set [2] (monkey striatum) came to 0.8.
In the case of `COC(=O)[C@@H]1[C@H]2CC[C@H](C2)C[C@H]1c1ccc2ccccc2c1` (relative stereo) [Compound O-1670, 2β-carbomethoxy-3α-(2-naphthyl)-8-bicyclo(3.2.1)octane], the Ki was found to be 425 ± 332 nM on human SERT [1] and 303 ± 8.7 nM at human SERT [4] (setting [7]). Besides, the IC50 worked out at 77.7 ± 13.5 nM in data set [2] and 21.2 ± 4.1 nM in data set [3]. The “selectivity for the serotonin” value in data set [2] (monkey striatum) was “relatively non-selective”. In data set [2] (monkey striatum), the “SERT/DAT Selectivity” value was determined as 0.3.
On to `COC(=O)[C@@H]1[C@H]2CC[C@H](C2)C[C@@H]1c1ccc2ccccc2c1` (relative stereo) [Compound O-1669, 2β-carbomethoxy-3β-(2-naphthyl)-8-bicyclo(3.2.1)octane], for which the results for the inhibitory constant (Ki) at human SERT [1] (setting [5]) and at human SERT [4] were 28 ± 2 nM and 289 ± 150 nM, respectively. The “blocked” value at human SERT [1] is “low nanomolar range”. For the same compound, the IC50 stood at 72.5 ± 12.6 nM in data set [2] and 27.1 ± 0.1 nM in data set [3]. Further, in data set [2] (monkey striatum), the “selectivity for the serotonin” value is “relatively non-selective”. Further, in data set [2] (monkey striatum), the “SERT/DAT Selectivity” value is 0.4.
With `C=C(C)c1ccc(C2CC3CCC(O3)C2C(=O)OC)cc1` (single isomer, unassigned) [Compound O-1809, 2β-carbomethoxy-3β-(4-isopropenylphenyl)-8-oxabicyclo(3.2.1)octane], the Ki on human SERT [1] (setting [5]) is 16 ± 4 nM; at human SERT [4] it was 9.6 ± 1.3 nM. Besides, at human SERT [1], the “blocked” value is on record as “low nanomolar range”. The IC50 in data set [2] is 10.2 ± 2.1 nM; in data set [3] (setting [6]), 1010 nM. Further, in data set [2] (monkey striatum), the “SERT/DAT Selectivity” value is 99.
For the compound `C=C(C)c1ccc(C2CC3CCC(O3)C2C(=O)OC)cc1` (racemic) [Compound O-1739, 2β-carbomethoxy-3β-(4-isopropenylphenyl)-8-oxabicyclo(3.2.1)octane], the melting point was in the range of 72.3 to 73.3 °C. The compound also showed an inhibition constant Ki at human SERT [1] (setting [5]) of 33 ± 2 nM. Further, at human SERT [1], the “blocked” value is listed as “low nanomolar range”. Further, the IC50 in data set [2] is 19.8 ± 0.75 nM. Also, the “SERT/DAT Selectivity” value in data set [2] (monkey striatum) worked out at 52. In addition, the IC50 in data set [3] (setting [6]) turned out to be 1020 nM. At human SERT [4], this compound had a Ki of 17.7 ± 6.3 nM.
